Measurements from patent US20090181408A1 (AMANO ENZYME INC., priority 2006, published 2009).
“And” between values parts separate entries of the source, which are not always exact repeats. Equal entries are not always repeated.

Assays:
purified FAD-GDH [1] = biological target: purified FAD-GDH (Aspergillus oryzae, UniProt A0A1S9DW10); experiment: Substrate specificity 1 of purified FAD-GDH (PMS/NTB); format: biochemical, Aspergillus oryzae BB-56; settings: reaction rate with respect to D-glucose assumed 100%, PIPES-NaOH pH 6.5, 37° C.
Method: Thus, the enzymatic activity was measured. The relative activity with respect to each substrate was calculated when the reaction rate with respect to D-glucose was assumed to be 100% (Table 3).

[2] = tested on: FAD-GDH derived from Aspergillus oryzae IAM2603; experiment: Substrate specificity 2, relative activity (PMS/DCIP); format: biochemical; settings: activity with D-glucose assumed 100%; dialyzed culture filtrate; MOPS pH 7.0, 25° C.
Method: (§1) 10 mL of each culture filtrate derived from Aspergillus oryzae BB-56, IAM2603, IAM2628, IAM2683, IAM2736, IAM2706, or NBRC30113 was placed in a dialysis membrane 36 and dialyzed in 10 mM KH2PO4—NaOH at 4° C. over night.
(§2) By measuring the decrease of DCIP by the reduction reaction in the absorbance at 600 nm, the FAD-GDH activity was measured. The activity with respect to each substrate was calculated when the activity with respect to D-glucose as a substrate was assumed to be 100% (Table 4). From the results, the substrate specificities of FAD-GDH derived from Aspergillus oryzae BB-56, IAM2603, IAM2628, IAM2683, IAM2736, IAM2706, or NBRC30113 are the same as each other.

[3] = tested on: FAD-GDH derived from Aspergillus oryzae NBRC30113; experiment: as above; format: biochemical; settings: activity with D-glucose assumed 100%; dialyzed culture filtrate; MOPS pH 7.0, 25° C.
Method: as §1, §2

[4] = tested on: FAD-GDH derived from Aspergillus oryzae IAM2628; experiment: as above; format: biochemical; settings: activity with D-glucose assumed 100%; dialyzed culture filtrate; MOPS pH 7.0, 25° C.
Method: as §1, §2

[5] = tested on: FAD-GDH derived from Aspergillus oryzae BB-56; experiment: as above; format: biochemical; settings: activity with D-glucose assumed 100%; dialyzed culture filtrate; MOPS pH 7.0, 25° C.
Method: as §1, §2

[6] = tested on: FAD-GDH derived from Aspergillus oryzae IAM2683; experiment: as above; format: biochemical; settings: activity with D-glucose assumed 100%; dialyzed culture filtrate; MOPS pH 7.0, 25° C.
Method: as §1, §2

[7] = tested on: FAD-GDH derived from Aspergillus oryzae IAM2706; experiment: as above; format: biochemical; settings: activity with D-glucose assumed 100%; dialyzed culture filtrate; MOPS pH 7.0, 25° C.
Method: as §1, §2

[8] = tested on: FAD-GDH derived from Aspergillus oryzae IAM2736; experiment: as above; format: biochemical; settings: activity with D-glucose assumed 100%; dialyzed culture filtrate; MOPS pH 7.0, 25° C.
Method: as §1, §2

[9] = phosphate buffer pH 7.0, 37° C.; for GO activity: 500 nm
Method: D-glucose+O2→D-glucono-δ-lactone+H2O2 Reaction 1
H2O2+4-aminoantipyrine+phenol→quinonimine dye+4H2O Reaction 2
H2O2 produced with GO in the reaction 1 is used in a production reaction of quinonimine dye with peroxidase in the reaction 2. By measuring the quinonimine dye in the absorbance in 500 nm, the GO activity was measured. The amount of enzyme oxidizing 1 μmole of D-glucose for one minute in the reaction condition at 37° C. is defined as one unit of the GO activity.
2.0 mL of phenol solution (0.1M phosphate buffer (pH 7.0) containing 0.152% phenol and 0.152% Triton X-100), 0.5 mL of 0.555 mol/L D-glucose solution, 0.5 mL of 25 U/mL peroxidase (AMANO ENZYME INC) solution, and 0.1 mL of 4 mg/mL 4-aminoantipyrine solution were mixed with each other and kept at 37° C. for 5 minutes. […] Two minutes and 5 minutes after the reaction was started, the absorbance in 500 nm was measured. Furthermore, as enzyme blank, 0.1M phosphate buffer (pH 7.0) was added instead of an enzyme solution, similarly the absorbance was measured. The GO activity was calculated from the following calculation formula.
In the formula, “3” denotes a reaction time, “12.88” denotes molecular absorption constant (mM) of the quinonimine dye, “1/2” denotes a coefficient based on the fact that 1 mole of quinonimine dye is produced from 2 mole of H2O2, “3.2” denotes a final liquid amount of the reaction solution, “0.1” is sample amount (mL), and “Dm” is dilution ratio, respectively.

[10] = PMS/NTB, pH 6.5, 37° C.
Method: 2.55 mL of 50 mM PIPES-NaOH buffer (pH 6.5) containing 0.22% (w/v) Triton X-100, 0.1 mL of 1M D-glucose solution, 0.2 mL of 3 mM PMS solution, and 0.1 mL of 6.6 mM NTB solution were mixed with each other and kept at 37° C. for 5 minutes. […] Diformazan produced by the enzyme reaction was measured in the absorbance in 570 nm and the amount Diformazan produced per minute was measured. Thus, the enzymatic activity was measured.

purified FAD-GDH [11] = experiment: Inhibition test with 1,10-phenanthroline (DCIP/1-methoxy PMS); format: biochemical, Aspergillus oryzae
Method: The enzymatic activities were measured in the control group and the test group (group in which 1,10-phenanthroline was added) and both activities were compared with each other. Thereby, the inhibition effect of 1,10-phenanthroline on purified FAD-GDH was examined.
Subsequently, 0.05 mL of enzyme solution was added, the change of absorbance in 600 nm of DCIP (ΔABS/min) was measured, and the enzymatic activity was calculated by the following calculation formula.
In the above-mentioned measurement method, the enzymatic activities when 1,10-phenanthroline was added so that the final concentration became 1 mM, 5 mM, 10 mM, 25 mM, and 50 mM were measured, respectively.

[12] = Investigation of temperature for stability; format: physicochemical
Method: Herein, the optimum pH is a value measured in, for example, Mcllvaine buffer as mentioned below in the Examples. The optimum temperature is also a value measured in, for example, PIPES-NaOH buffer (pH 6.5). Furthermore, the enzyme maintains 80% or more of the activity when it is treated under a certain pH condition at 37° C. for 30 minutes, the enzyme can be “stable” in the pH condition. […] The Km value and the isoelectric point can be measured and evaluated by the method described below in the Examples (columns 8 and 6).
Purified FAD-GDH was diluted to 1 U/mL with 50 mM PIPES-NaOH buffer (pH 6.5) containing 1 mM calcium chloride, 0.1% (w/v) Triton X-100, and 0.1% (w/v) bovine serum albumin and treated at each designated temperature (5, 30, 40, 50, or 60° C.) for 20 minutes. Each treated solution was cooled in ice and then it was diluted with 50 mM PIPES-NaOH buffer (pH 6.5) containing 1 mM calcium chloride, 0.1% (w/v) Triton X-100, 0.1% (w/v) bovine serum albumin, and the FAD-GDH activity was measured in the above-mentioned method 1. As a control, FAD-GDH of the not thermally treated enzyme was measured. […]

[13] = Investigation of optimum temperature; format: biochemical; settings: PIPES-NaOH buffer pH 6.5, 30-65° C.
Method: Thus, the enzymatic activity was measured. […] (FIG. 6).

[14] = Investigation of pH for stability; format: physicochemical; settings: pH 3.0 to pH 7.0, 37° C., 30 minutes
Method: Herein, the optimum pH is a value measured in, for example, Mcllvaine buffer as mentioned below in the Examples. The optimum temperature is also a value measured in, for example, PIPES-NaOH buffer (pH 6.5). Furthermore, the enzyme maintains 80% or more of the activity when it is treated under a certain pH condition at 37° C. for 30 minutes, the enzyme can be “stable” in the pH condition. Similarly, when the activity of the enzyme is not substantially deteriorated (that is to say, about 100% of the activity is maintained) after it is treated under a certain temperature condition in a suitable buffer solution (for example, PIPES-NaOH buffer, pH 6.5) for 20 minutes, the enzyme can be “stable” in the temperature condition. The Km value and the isoelectric point can be measured and evaluated by the method described below in the Examples (columns 8 and 6).
Each treatment solution was appropriately diluted with 0.2M KH2PO4—NaOH buffer (pH 6.5) and the FAD-GDH activity was measured by the above-mentioned method 1. As a control, the activity of purified FAD-GDH, which was diluted with 0.1M KH2PO4—NaOH buffer (pH 6.5) and stored in ice, was also measured. As a result, FAD-GDH maintains 80% or more of the activity at least in the range from pH 3.0 to pH 7.0, showing that FAD-GDH is stable in the range from pH 3.0 to pH 7.0 (FIG. 7).

[15] = Measurement of isoelectric point (glycerol density gradient electrophoresis); format: physicochemical
Method: This dialysis sample was subjected to glycerol density gradient electrophoresis. A carrier ampholyte having a column volume of 110 mL (Pharmalyte™ 3-10 for IEF (Amersham Biosciences AB), average final concentration of 1%) was used to allow an electric current to pass at 5° C. at a constant voltage of 400V for 48 hours. After passing current, samples were recovered at the flow rate of about 2 mL/min (one fraction was made to be 1.5 mL). When pH and FAD-GDH activity of each fraction were measured, pI of FAD-GDH derived from Aspergillus oryzae BB-56 was 6.4 (FIG. 9).

[16] = substrate: OC[C@H]1OC(O)[C@H](O)[C@@H](O)[C@@H]1O; experiment: Measurement of Michaelis-Menten Km constant (Lineweaver-Burk plot); format: biochemical, Aspergillus oryzae BB-56; settings: other: purified FAD-GDH, PIPES-NaOH pH 6.5, 37° C.

Row | Molecule | relative activity (purified FAD-GDH [1]) | relative activity, IAM2603 [2] | relative activity, NBRC30113 [3] | relative activity, IAM2628 [4] | relative activity, BB-56 [5] | relative activity, IAM2683 [6] | relative activity, IAM2706 [7] | relative activity, IAM2736 [8] | also measured
1 | O=C[C@H](O)[C@@H](O)[C@H](O)CO [xylose] | 22.7% | 16.1% | 17.6% | 16.4% | 17.6% | 17.3% | 16.1% | 14.6% | –
2 | maltohexaose | 0.479% | – | – | – | – | – | – | – | –
3 | O=C[C@H](O)[C@@H](O)[C@@H](O)[C@H](O)CO [galactose] | 0.349% | – | – | – | – | – | – | – | –
4 | glucose oxidase [GO] | – | – | – | – | – | – | – | – | GO activity [9]: 67.8 U/mL; GDH activity [10]: 8.86 U/mL; GDH activity (in words) [10]: also has the GDH activity
5 | maltotriose | 0.239% | – | – | – | – | – | – | – | –
6 | c1cnc2c(c1)ccc1cccnc12 [1,10-phenanthroline] | – | – | – | – | – | – | – | – | Inhibition effect (purified FAD-GDH [11]; final concentration of 1,10-phenanthroline 5 mM): 21%; Inhibition effect (purified FAD-GDH [11]; final concentration of 1,10-phenanthroline 10 mM): 38%
7 | O=CC[C@@H](O)[C@H](O)[C@H](O)CO [2-deoxyglucose] | – | 29.0% | 35.3% | 34.2% | 35.1% | 32.7% | 33.9% | 31.3% | –
8 | OC[C@H]1O[C@H](O[C@H]2[C@H](O)[C@@H](O)C(O)O[C@@H]2CO)[C@H](O)[C@@H](O)[C@@H]1O (mixture of isomers) [maltose] | 0.582% | 0% | 0% | 0% | 0% | 0% | 0% | 0% | –
9 | O=C(CO)[C@@H](O)[C@H](O)[C@H](O)CO [fructose] | – | 0% | 0% | 1.40% | 0% | 0% | 0% | 0% | –
10 | flavin adenine dinucleotide-binding glucose dehydrogenase | – | – | – | – | – | – | – | – | activity maintained after thermal treatment ([12]; 40° C. or less, 20 minutes, pH 6.5): ~100%; temperature for stability ([12]; treated 20 minutes in PIPES-NaOH pH 6.5, stable = about 100% of activity maintained): ≤ 40 °C; optimum temperature [13]: about 60 °C; GO activity (in words) [9]: does not substantially have the GO activity; GO activity [9]: 0.0025 U/mL; activity maintained after pH treatment [14]: ≥ 80%; GDH activity [10]: 119 U/mL; isoelectric point (pI) ([15]; listed as FAD-GDH): about 6.4; isoelectric point (pI) ([15]; listed as FAD-GDH derived from Aspergillus oryzae BB-56): 6.4
11 | maltopentaose | 4.55% | – | – | – | – | – | – | – | –
12 | purified FAD-GDH (Aspergillus oryzae) (protein) SPAGRAKNTTTYDYIVVGGGTSGLVVANRLSENPDVSVLLLEAGASVFNNPDVTNANGYGLAFGSAIDWQYQSINQSYAGGKQQVLRAGKALGGTSTINGMAYTRAEDVQIDVWQKLGNEGWTWKDLLPYYLKSENLTAPTSSQVAAGAAYNPAVNGKEGPLKVGWSGSLASGNLSVALNRTFQAAGVPWVEDVNGGKMRGFNIYPSTLDVDLNVREDAARAYYFPYDDRKNLHLLENTTANRLFWKNGSAEEAIADGVEITSADGKVTRVHAKKEVIISAGALRSPLILELSGVGNPTILKKNNITPRVDLPTVGENLQDQFNNGMAGEGYGVLAGASTVTYPSISDVFGNETDSIVASLRSQLSDYAAATVKVSNGHMKQEDLERLYQLQFDLIVKDKVPIAEILFHPGGGNAVSSEFWGLLPFARGNIHISSNDPTAPAAINPNYFMFEWDGKSQAGIAKYIRKILRSAPLNKLIAKETKPGLSEIPATAADEKWVEWLKANYRSNFHPVGTAAMMPRSIGGVVDNRLRVYGTSNVRVVDASVLPFQVCGHLVSTLYAVAERASDLIKEDAKSA | – | – | – | – | – | – | – | – | Km [16]: 8.2 mM and 8 mM
